Consider one substance from patent US20030186946A1, “Suppression of cytotoxic protein conformers” (priority 2002, published 2003).

Read-outs that look alike come from different tables or passages of the source.

In series [1] the target is T1, human amylin (Homo sapiens, UniProt P10997).
T1 sequence (P10997 34-70 limits assumed): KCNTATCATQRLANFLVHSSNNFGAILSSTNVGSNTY
Conditions: 10 μM thioflavin-T. Here is the method:
Thioflavin-T binding fluorescent assays. The effects of various polycyclic compounds on islet amyloid formation were measured by fluorescence spectroscopy, using a SpectraMAX Gemini XS Fluorescence Spectrophotometer (Molecular Devices Corporation, Sunnyvale, Calif.). Excitation and emission maxima were set to 450 nm and 510 nm respectively using a cutoff filter at 495 nm. Thioflavin-T binds to amylin fibrils, but not to monomeric amylin (Goldsbury et al., (1999), J. Mol. Biol., 285:33-39). […] The rate of amylin fibril formation was determined by following thioflavin-T fluorescence in the presence or absence of the potential inhibitory drug. […] Background fluorescence by acridine and acridine orange in the absence of amylin was subtracted from the experimental results. The control preparation contained human amylin and thioflavin-T in the absence of drug. The rate of fluorescence enhancement under these conditions was used to compare amylin fibril formation in the absence and presence of the drug. All other experimental conditions were identical.
Tri-prolyl amylin and rat amylin with thioflavin-T were also used as additional controls.
Each data point represents the mean±s.e.m of three separate reactions.
Effect of chlorpromazine on enhancement of thioflavin-Tfluorescence by human amylin (FIG. 2). Chlorpromazine (700 μM) (π) was incubated in 10 mM tris p H 7.4, with monomeric human amylin (70 μM) in the presence of thioflavin-T (10 μM). The fluorescence of the reaction was monitored over 24 hours as described in the methods. […] Each data point represents the mean±s.e.m of three separate reactions.
Effect of selected polycylic compounds on enhancement of thioflavin-Tfluorescence by human amylin (FIG. 3). Acridine, acridine orange, neutral red and methylene blue are selected examples of fused tricyclic ring compounds. […] Compound structures are shown adjacent to the appropriate graph. […] Fluorescence was monitored over 24 h as described in the Methods. A preparation containing human amylin and thioflavin-T only (▪), was included as a comparison in the absence of drug. […] Each data point represents the mean±s.e.m of three independent experiments.

The test system of series [2] is RINm5F cells. Nature of the series: Cytotoxicity assay in RINm5F cells (calcein-AM / ethidium homodimer-1 staining).
Procedure: Cell Culture and Cytotoxicity Assays. RINm5F cells were cultured in RPMI 1640 medium containing 10% fetal bovine serum, 290 μg/mL L-glutamine, 100 IU/mL penicillin and 100 μg/mL streptomycin. Cells were plated at a density of 15×1 cells per well, incubated for 48 h, rinsed with PBS and placed in fresh medium containing Congo red. Freshly prepared human amylin in Milli-Q water, was preincubated with Congo red for 30 min, then added to the cell culture medium to give a final concentration of 30 μM. Cells were treated for 22 h with human amylin in the presence or absence of 100 μM Congo red. Cell viability was determined by double-staining with calcein-AM and ethidium homodimer-1. Green fluorescence of live cells and red fluorescence marking nuclei of dead cells were simultaneously visualized using a Zeiss Axiovert S100 microscope equipped with a Zeiss filter set # 09. Photographs were taken at 400× magnification using a Zeiss AxioCam digital camera.
A. Representative fluorescence micrograph of RINm5F cells treated with 30 μM human amylin for 22 h and stained with calcein-AM and ethidium homodimer-1 to show live cells (green) and dead cells (red). […] B. A representative micrograph of RINm5F cells treated with 30 μM human amylin and 100 μM Congo red stained as above. […] The percentage of live cells was determined for cells treated for 22 h with vehicle; 30 μM human amylin; 30 μM human amylin in the presence of 100 μM Congo red; or 30 μM rat amylin. Experiments were repeated independently 10 times except for human amylin plus Congo red (A+CR) which was repeated five times. Error bars represent the s.e.m of live and dead cell counts over 6-12 fields per condition.
Series [3] concerns the target T1, human amylin. Nature of the series: Electron microscopy of human amylin fibrils. It is filed as biochemical. Also noted: Amylin is a 37-residue; C-terminally amidated peptide having a disulfide bridge between the cysteines at residues 2 and 7; purchased Bachem Calif; (Torrance, Calif.); host or cells: chemical synthesis. As to conditions: 1200 μM compound, 60 μM human amylin, 10 mM tris pH 7.4, 24 h (FIG. 6). Here is the method: Electron Microscopy. […] Samples were removed at various time points and prepared for electron microscopy. Aliquots (8 μl) of the amylin fibril preparations were absorbed to glow-discharged carbon-coated collodion film on 200-mesh copper grids for 1 min. Grids were blotted, washed twice in droplets of deionised water and stained with 2% (w/v) uranyl acetate. Grids were examined in a Phillips Technai transmission electron microscope operated at 120 kV.
Samples were removed at various time points and prepared for electron microscopy according to the procedure described in the methods.
Electron Microscopy of human amylin fibrils in the presence and absence of quinacrine (FIG. 5). A 100 fold molar excess of quinacrine was incubated with human amylin. Samples were removed at various time points and prepared for electron microscopy according to the procedure described in the methods.
Electron Microscopy of human amylin fibrils in the presence and absence of selected polycyclic compounds (FIG. 6). […] Samples were removed and prepared for electron microscopy as described in the Methods. All experiments were performed in triplicate and the pictures above are representative of at least 6 photographs taken at each magnification.

Series [4] deals with T1, human amylin. Nature of the series: Radiolabelled precipitation assay of amylin fibril formation. The format is biochemical. Also noted: Amylin is a 37-residue; C-terminally amidated peptide having a disulfide bridge between the cysteines at residues 2 and 7; purchased Bachem Calif; (Torrance, Calif.); host or cells: chemical synthesis. Conditions: 200 μM Congo red, 10 μM human amylin, after 5 h. As for the experimental part: Radiolabelled Precipitation Assays. The precipitation of radiolabelled human and rat amylin fibrils was used as an independent method to monitor assembly of amylin fibrils in the presence or absence of potential inhibitors of amylin fibril formation. […] Incubation mixtures were then centrifuged at either 16,000×g or 100,000×g, for 20 min, and the amount of [^3H]-human amylin remaining in the supernatant after centrifugation was determined (Beckman LSW 3801 β-counter, USA). Results were expressed as percentages of precipitable counts per minute, relative to total radioactivity in the supernatant.
Incorporation of [^3H]-amylin into amylin fibrils was followed for 24 hours. Human amylin fibrils were precipitated by centrifugation at either 16,000×g (FIG. 7A) or at 100,000×g (FIG. 7B). Rat amylin (10 μM) in the presence of [^3H]-rat amylin was used as a non-fibril forming control (♦) (FIG. 7A). The results are shown as the percentage of precipitable radioactive amylin, relative to total radioactivity in the supernatant at each time point. Each data point represents the mean±s.e.m of three separate reactions.
The incorporation of radioactive monomeric amylin into the human amylin fibrils as they form, can be used to measure the rate at which amylin fibrils form in the presence or absence of a potential inhibitory drug. Amylin fibrils can be separated from solution by centrifugation and the amount of radioactive amylin precipitated in the amylin fibril pellet is then used as a measure of the amount of amylin fibrils present at that time.
Thioflavin-T, although not polycyclic, is widely used in fluorescent assays to measure amylin fibril formation. Incorporation of radioactivity into the pellet of an aliquot of the reaction mixture centrifuged at 16,000×g, for 20 minutes was monitored over the time periods indicated. Rat amylin (10 μM) with [^3H]-rat amylin added was used as a non fibril forming control (∘) in each experiment. The results are shown as the percentage of precipitable radioactive amyloid, relative to total radioactivity in the supernatant at each time point. Each data point represents the mean±s.e.m of three separate experiments.

Take Congo red: the “enhancement of thioflavin-T fluorescence by human amylin” value in series [1] (700 μM compound, 70 μM human amylin, 10 mM tris pH 7.4, over 72 hours (FIG. 1)) is listed as “no increase in fluorescence beyond that of the rat control preparation”; in series [1] (1200 μM compound (20-fold molar excess), 60 μM human amylin, over 24 h (FIG. 3)), “no increase in thioflavin-T enhanced fluorescence”. Further, in series [2] (30 μM human amylin, 100 μM Congo red (3-fold molar excess), 22 h), the “protection against cytotoxic effects of human amylin” value is “inhibited the cytotoxic effects of amylin”. In series [2] (relative molar ratios which produced suppression of amyloid aggregation (low μM)), the “intrinsic cytotoxicity of compound to RINm5F β cells” value is listed as “nointrinsic cytotoxic effects”. Besides, in series [3], the “morphology of human amylin fibrils (electron microscopy)” value is on record as “still formed characteristic amylin fibrils”. Also, in series [4], the “reduction in amyloid content” value is given as “approximately 3 fold”.
